Assay results as given in patent publication US8927500B2, “Peptidomimetic macrocycles” (Aileron Therapeutics, Inc., priority 2012, dated 2015).
Each block holds one molecule with its values, some of them ahead of it. Where a SMILES comes first, the peptide text is derived from it. Bridges are numbered along the chain shown (N, C = ends). [ ]: non-standard residue; d: D form. Phe(4-COOH) = N[C@@H](Cc1ccc(C(=O)O)cc1)C(=O)O; R8 = C=CCCCCCC[C@@](C)(N)C(=O)O; Cba = N[C@@H](CC1CCC1)C(=O)O; S5 = C=CCCC[C@](C)(N)C(=O)O

How the values were obtained:
[1] = MCF-7 xenograft study, body weight, deaths and tolerability; assay type: in vivo, mice
From the text: A negative control stapled peptide.

SJSA-1 cells [2] = experiment: Cell viability assay (MTT), SJSA-1; details: in words
[3] = tested on: MCF-7 breast cancer xenograft; experiment: MCF-7 breast cancer xenograft study, tumor growth inhibition; details: 30 mg/kg 3×/wk iv
Protocol: This formulation was prepared once for the duration of the study.
Each group was assigned to a different treatment regimen.
During the dosing period the mice were weighed and tumors measured 1-2 times per week.

Caspase 3 = Caspase 3 detection assay in SJSA1 cells; assay type: cell-based; details: 48 h, Caspase 3 activation over DMSO-treated cells
MDMX = target: T1, MDMX (Homo sapiens, UniProt O15151); experiment: Competitive fluorescence polarization assay for MDMX; assay type: binding; details: competitive FP assay
T1 sequence (O15151 1-125): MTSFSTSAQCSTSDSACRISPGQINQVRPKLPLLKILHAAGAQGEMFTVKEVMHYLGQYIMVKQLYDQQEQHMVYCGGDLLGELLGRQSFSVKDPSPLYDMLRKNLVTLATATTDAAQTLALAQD
Protocol: Dilute MDMX (In-house, 40 kD) into FP buffer (High salt buffer-200 mM Nacl, 5 mM CHAPS, pH 7.5.) to make 300 nM (2×) working stock solution. • 2. […] Dilute 1 mM (in 100% DMSO) of FAM labeled linear peptide with DMSO to 100 μM (dilution 1:10). Then, dilute from 100 μM to 10 μM with water (dilution 1:10) and then dilute with FP buffer from 10 μM to 40 nM (dilution 1:250). This is the working solution which will be a 10 nM concentration in well (dilution 1:4). Keep the diluted FAM labeled peptide in the dark until use. • 4. […] Dilute 10 mM (in 100% DMSO) with DMSO to 5 mM (dilution 1:2). Then, dilute from 5 mM to 500 μM with H2O (dilution 1:10) and then dilute with FP buffer from 500 μM to 20 μM (dilution 1:25). […] Transfer 10 μl of serial diluted unlabeled peptides to each well which is filled with 20 μl of 300 nM of protein. • 7. Add 10 μl of 10 nM (4×) of FAM labeled peptide into each well and incubate for 3 hr to read.

MDM2 = MDM2 (Homo sapiens, UniProt Q00987); experiment: Competitive fluorescence polarization assay for MDM2; assay type: binding; details: competitive FP assay, MDM2
MDM2, sequence (Q00987 1-125): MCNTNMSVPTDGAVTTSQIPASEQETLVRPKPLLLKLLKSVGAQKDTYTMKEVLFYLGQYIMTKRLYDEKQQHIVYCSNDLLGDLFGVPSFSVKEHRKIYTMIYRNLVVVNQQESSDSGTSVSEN

[4] = Circular dichroism (CD) analysis of alpha-helicity; assay type: physicochemical
Protocol: To assay the helicity of peptidomimetic macrocycles, the compounds are dissolved in an aqueous solution (e.g. 50 mM potassium phosphate solution at pH 7, or distilled H2O, to concentrations of 25-50 μM). Circular dichroism (CD) spectra are obtained on a spectropolarimeter (e.g., Jasco J-710) using standard measurement parameters (e.g. temperature, 20° C.; wavelength, 190-260 nm; step resolution, 0.5 nm; speed, 20 nm/sec; accumulations, 10; response, 1 sec; bandwidth, 1 nm; path length, 0.1 cm). […] A Peltier temperature controller was used to maintain temperature control of the optical cell. Results are expressed as mean molar ellipticity [0] […] Peptide concentrations were determined by amino acid analysis. Stock solutions of peptides were prepared in benign CD buffer (20 mM phosphoric acid, pH 2). The stocks were used to prepare peptide solutions of 0.05 mg/ml in either benign CD buffer or CD buffer with 50% trifluoroethanol (TFE) for analyses in a 10 mm pathlength cell. […] The average of six scans was reported.

SJSA-1 cells [5] = experiment: Cell lysis by peptidomimetic macrocycles (LDH release); assay type: cell-based; details: 1 h at 37C

Compound: CC[C@H](C)[C@H](NC(=O)[C@H](C)NC(=O)[C@H](C)NC(=O)[C@]1(C)CCC/C=C/CCCCCC[C@@](C)(NC(=O)[C@H](Cc2ccccc2)NC(=O)[C@@H](NC(=O)[C@H](CC(C)C)NC(C)=O)[C@@H](C)O)C(=O)N[C@@H](CCC(=O)O)C(=O)N[C@@H](Cc2ccc(C(=O)O)cc2)C(=O)N[C@@H](Cc2c[nH]c3ccccc23)C(=O)N[C@@H](C)C(=O)N[C@@H](CCC(N)=O)C(=O)N[C@@H](CC2CCC2)C(=O)N1)C(=O)N[C@H](C)C(N)=O [SP249, Ac-L T F $er8 E F4coohWAQCba $e AA-I-a-NH2] (Ac-LTF[R8]E[Phe(4-COOH)]WAQ[Cba][S5]AAI[dA]-NH2; staple (E) 4-11)
mice died during treatment ([1]; […] 3×/wk iv, 10 mice per group): 4

Compound: CC(=O)N[C@@H](CC(C)C)C(=O)N[C@H](C(=O)N[C@@H](C)C(=O)N[C@]1(C)CCCCCCC=CCCC[C@@](C)(C(=O)N[C@@H](CO)C(=O)N[C@@H](C)C(=O)N[C@@H](C)C(N)=O)NC(=O)[C@H](CC2CCC2)NC(=O)[C@H](CCC(N)=O)NC(=O)[C@H](C)NC(=O)[C@H](Cc2c[nH]c3ccccc23)NC(=O)[C@H](Cc2ccc(O)cc2)NC(=O)[C@H](CCC(=O)O)NC1=O)[C@@H](C)O [SP252]
activity in the SJSA-1 in vitro viability assay (SJSA-1 cells [2]): no activity | activity in in vitro assays (SJSA-1 cells [2]; in vitro assays not specified): no appreciable activity | % BW Change ([1]; 30 mg/kg 3×/wk iv): +3.3% | No. with ≧10% BW Loss ([1]; 30 mg/kg 3×/wk iv): 0/10 | No. with ≧20% BW Loss or death ([1]; 30 mg/kg 3×/wk iv): 0/10 | tolerability of dosing regimen ([1]; 30 mg/kg 3×/wk iv, in words): well-tolerated | TGI by Day 32 [3]: 88%

IC50 (MDMX; read-out: IC50 (MDMX)): 100 to 1000 nM | Ki (MDMX; read-out: Ki (MDMX)): 10 to 100 nM | IC50 (MDM2; read-out: IC50 (MDM2)): 10 to 100 nM | Ki (MDM2; read-out: Ki (MDM2)): < 10 nM | % Helix 50% TFE compared to 50% TFE parent (CD) ([4]; 50% TFE): 123.7% | Molar Ellipticity 50% TFE (222 in 50% TFE) ([4]; CD buffer with 50% TFE, 222 nm, 4° C.): −17957 deg cm2 dmol-1 | Molar Ellipticity Benign (222 in 0% TFE) ([4]; benign CD buffer pH 2, 0% TFE, 222 nm, 4° C.): −121.2 deg cm2 dmol-1 | % Helix benign compared to 50% TFE parent (CD) ([4]; benign buffer): 0.8% | Molar Ellipticity TFE-Molar Ellipticity Benign ([4]; difference 50% TFE minus benign): −17835.9 deg cm2 dmol-1
Compound: CC[C@H](C)[C@H](NC(=O)[C@H](C)NC(=O)[C@H](C)NC(=O)[C@]1(C)CCC/C=C/CCCCCC[C@@](C)(NC(=O)[C@H](Cc2ccccc2)NC(=O)[C@@H](NC(=O)[C@H](CC(C)C)NC(C)=O)[C@@H](C)O)C(=O)N[C@@H](C)C(=O)N[C@@H](Cc2ccc(O)cc2)C(=O)N[C@@H](Cc2c[nH]c3ccccc23)C(=O)N[C@@H](C)C(=O)N[C@@H](CCC(N)=O)C(=O)N[C@@H](CC(C)C)C(=O)N1)C(=O)N[C@H](C)C(N)=O [compound 71]
caspase 0.3 uM (Caspase 3; 0.3 uM peptide): 0.95 | caspase 1 uM (Caspase 3; 1 uM peptide): 1.02 | caspase 3 uM (Caspase 3; 3 uM peptide): 3.68 | caspase 30 uM (Caspase 3; 30 uM peptide): 23.52 | 6.25 uM % Lysed cells (1 h LDH) (SJSA-1 cells [5]; 6.25 uM): 0% | 25 uM % Lysed cells (1 h LDH) (SJSA-1 cells [5]; 25 uM): 0% | 50 uM % Lysed cells (1 h LDH) (SJSA-1 cells [5]; 50 uM): 0%
